These results are taken from patent publication US8008329B2 (Dong Wha Pharmaceutical Co., Ltd., priority 2008, dated 2011).

SMILES strings stand for the structures. Marks after values point to notes of the source that are not given here.

The assay has as its system osteoclast differentiation. The assay is described as follows: Osteoclast differentiation in co-culture of mouse bone marrow cells and ST2 cells, TRAP staining (Examples 8-9). The assay is classed as cell-based. The conditions noted are these: for % number of osteoclast (vs. solvent control group): day 7; for activity at 0.1 µM: Mus musculus, Osteoclast, 168 h, day 7, read-out: % number of osteoclast (vs. solvent control group). The gist of the method:
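Readout was TRAP-positive multinucleated (≥6 nuclei) cells on day 7, reported as % of 0.1% DMSO control, mean±SD of 4 wells. Cells were mouse (male ddY) bone marrow plus ST2 co-cultures driven by 10^−8 M vitamin D3/dexamethasone. Benzamidines, alendronic acid or risedronic acid were added at 0.1 μM alone or combined, with media renewed days 3 and 5.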

The mark [1] stands for this setting: Combination treatment (alendronic acid + compounds), 0.1 μM each.
[2] abbreviates: Combination treatment (risedronic acid + compounds), 0.1 μM each.
[3] abbreviates: Individual treatment (compounds), 0.1 μM.

Take `CNC(=O)c1sc(C)nc1-c1ccc(OCCCCCOc2ccc(C(=N)NO)cc2)cc1` [Compound 282, N-hydroxy-4-{5-[4-(5-methylcarbamoyl-2-methyl-thiazol-4-yl)-phenoxy]-pentyloxy}-benzamidine]: the “% number of osteoclast (vs. solvent control group)” value (shortened to “% number of osteoclast”) by setting is: under setting [1], 49 ± 9.9^ab %; under setting [2], 45 ± 5.2^ac %. Besides, the activity at 0.1 µM under setting [3] stood at 73 ± 7.1%.
Turning to `CC(C)C(=O)N(C)c1nc(-c2ccc(OCCCCCOc3ccc(C(=N)NO)cc3)cc2)c(CCN2CCOCC2)s1` [Compound 268, N-hydroxy-4-(5-{4-[2-(isobutyryl-methyl-amino)-5-(2-morpholin-4-yl-ethyl)-thiazol-4-yl]-phenoxy}-pentyloxy)-benzamidine], the “% number of osteoclast” value under setting [1] was 28 ± 1.7^b % and the “% number of osteoclast” value under setting [2] is given as 17 ± 3.4^ac %. Moreover, the activity at 0.1 µM under setting [3] worked out at 52 ± 9.1%.
On to `Cc1nc(-c2ccc(OCCCOc3ccc(C(=N)NO)cc3)cc2)c(C(C)C)s1` [Compound 193, N-hydroxy-4-{3-[4-(5-isopropyl-2-methyl-1,3-thiazol-4-yl)phenoxy]propoxy}-benzamidine], for which the “% number of osteoclast” value is, setting by setting: under setting [1], 34 ± 5.0^ab %; under setting [2], 27 ± 4.8^ac %. For the same compound, under setting [3], the activity at 0.1 µM was 48 ± 4.4%.
As for `Cc1nc(-c2ccc(OCCCCCOc3ccc(C(=N)NO)cc3)cc2)c(CN2CCCC2)s1` [Compound 304, N-hydroxy-4-{5-[4-(2-methyl-5-pyrolidin-1-ylmethyl-thiazol-4-yl)-phenoxy]-pentyloxy}-benzamidine], the “% number of osteoclast” value is 27 ± 6.4^ab % under setting [1], 16 ± 4.5^ac % under setting [2] and 54 ± 6.4% under setting [3].
As to `N=C(NO)c1ccc(OCCCCCOc2ccc(-c3nc(CN4CCCCC4)sc3CCN3CCOCC3)cc2)cc1` [Compound 276, N-hydroxy-4-(5-{4-[5-(2-morpholin-4-yl-ethyl)-2-piperidin-1-yl-methyl-thiazol-4-yl]-phenoxy}-pentyloxy)-benzamidine], the “% number of osteoclast” value is, setting by setting: under setting [1], 21 ± 2.9^b %; under setting [2], 11 ± 3.1^c %. Besides, the activity at 0.1 µM under setting [3] is 41 ± 12.1%.
For `CN(CCN1CCOCC1)c1nc(-c2ccc(OCCCCCOc3ccc(C(=N)NO)cc3)cc2)c(CC2CCCC2)s1` [Compound 148, N-hydroxy-4-[5-(4-{5-cyclopentylmethyl-2-[methyl-(2-morpholinoethyl)amino]-1,3-thiazol-4-yl}phenoxy)pentyloxy]-benzamidine], in that order: 33 ± 8.3^ab %, 19 ± 2.4^a % and 65 ± 4.3%.
For `N=C(NO)c1ccc(OCCCCCOc2ccc(-c3nc(N4CCOCC4)sc3C3CCCC3)cc2)cc1` [Compound 172, N-hydroxy-4-{5-[4-(5-cyclopentyl-2-morpholin-4-yl-1,3-thiazol-4-yl)phenoxy]pentyloxy}-benzamidine], in that order: 33 ± 5.3^ab %, 26 ± 5.1^a % and 57 ± 5.1%.
In the case of `CC(C)c1nc(-c2ccc(OCCCCCOc3ccc(C(=N)NO)cc3)cc2)c(CCNCCCn2ccnc2)s1` [Compound 244, N-hydroxy-4-[5-(4-{5-[2-(3-imidazol-1-yl-propylamino)-ethyl]-2-isopropyl-thiazol-4-yl}-phenoxy)-pentyloxy]-benzamidine], the “% number of osteoclast” value under setting [1] is listed as 19 ± 3.3^ab % and the “% number of osteoclast” value under setting [2] is listed as 11 ± 1.7^ac %. Further, under setting [3], the activity at 0.1 µM came out at 46 ± 2.9%.
For `N=C(NO)c1ccc(OCCCCCOc2ccc(-c3nc(N4CCOCC4)sc3CN3CCOCC3)cc2)cc1` [Compound 336, N-hydroxy-4-{5-[4-(2-morpholin-4-yl-5-morpholin-4-ylmethyl-thiazol-4-yl)-phenoxy]-pentyloxy}-benzamidine], in that order: 22 ± 3.2^ab %, 16 ± 3.0^ac % and 52 ± 4%.
Regarding `CN(C)CCc1sc(C2CCCCC2)nc1-c1ccc(OCCCCCOc2ccc(C(=N)NO)cc2)cc1` [Compound 250, N-hydroxy-4-(5-{4-[2-cyclohexyl-5-(2-dimethylamino-ethyl)-thiazol-4-yl]-phenoxy}-pentyloxy)-benzamidine], the “% number of osteoclast” value runs as follows: under setting [1], 45 ± 5.2^b %; under setting [2], 12 ± 1.4^ac %. For the same compound, the activity at 0.1 µM under setting [3] was 52 ± 7.2%.
For `CCc1sc(NCCOC)nc1-c1ccc(OCCCCCOc2ccc(C(=N)NO)cc2)cc1` [Compound 102, N-hydroxy-4-{5-[4-(5-ethyl-2-(2-methoxyethyl)amino-1,3-thiazol-4-yl)phenoxy]pentyloxy}-benzamidine], in that order: 37 ± 3.6^b %, 21 ± 2.6^ac % and 47 ± 4%.
For `N=C(NO)c1ccc(OCCCCCOc2ccc(-c3nc(C4CCCCC4)sc3CCN3CCSCC3)cc2)cc1` [Compound 249, N-hydroxy-4-(5-{4-[2-cyclohexyl-5-(2-thiomorpholin-4-yl-ethyl)-thiazol-4-yl]-phenoxy}-pentyloxy)-benzamidine], in that order: 24 ± 4.0^ab %, 13 ± 4.8^ac % and 36 ± 4%.
For `CCc1nc(-c2ccc(OCCCCCOc3ccc(C(=N)NO)cc3)cc2)c(CC2CCCC2)s1` [Compound 46, N-hydroxy-4-{5-[4-(5-cyclopentylmethyl-2-ethyl-1,3-thiazol-4-yl)phenoxy]pentyloxy}-benzamidine], in that order: 36 ± 5.1^ab %, 31 ± 8.5^ac % and 71 ± 9.4%.
Turning to `CN(C)c1nc(-c2ccc(OCCCCCOc3ccc(C(=N)NO)cc3)cc2)c(CC2CCCC2)s1` [Compound 163, N-hydroxy-4-{5-[4-(5-cyclopentylmethyl-2-dimethylamino-1,3-thiazol-4-yl)phenoxy]pentyloxy}-benzamidine], the “% number of osteoclast” value reads like this: under setting [1], 55 ± 7.6%; under setting [2], 41 ± 7.3^ac %. For the same compound, the activity at 0.1 µM under setting [3] amounted to 65 ± 8.8%.
For `N=C(NO)c1ccc(OCCCCCOc2ccc(-c3nc(N)sc3CC3CCCC3)cc2)cc1` [Compound 67, N-hydroxy-4-{5-[4-(2-amino-5-cyclopentylmethyl-1,3-thiazol-4-yl)phenoxy]pentyloxy}-benzamidine], in that order: 53 ± 6.4^b %, 36 ± 1.7^ac % and 74 ± 11.7%.
For `CCc1sc(-c2cccnc2)nc1-c1ccc(OCCCCCOc2ccc(C(=N)NO)cc2)cc1` [Compound 21, N-hydroxy-4-{5-[4-(5-ethyl-2-pyridin-3-yl-1,3-thiazol-4-yl)phenoxy]pentyloxy}-benzamidine], in that order: 22 ± 7.1^ab %, 47 ± 10.1% and 52 ± 10.4%.
`CN(CCN1CCOCC1)c1nc(-c2ccc(OCCCCCOc3ccc(C(=N)NO)cc3)cc2)c(CN2CCOCC2)s1` [Compound 313, N-hydroxy-4-[5-(4-{2-[methyl-(2-morpholin-4-yl-ethyl)-amino]-5-morpholin-4-ylmethyl-thiazol-4-yl}-phenoxy)-pentyloxy]-benzamidine]: the “% number of osteoclast” value reads like this: under setting [1], 23 ± 5.9^ab %; under setting [2], 13 ± 3.3^ac %. Further, under setting [3], the activity at 0.1 µM worked out at 53 ± 6%.
For `Cc1sc(N(C)CCO)nc1-c1ccc(OCCCCCOc2ccc(C(=N)NO)cc2)cc1` [Compound 120], in that order: 54 ± 2.4^ab %, 55 ± 9.1^ac % and 80 ± 6.5%.
For `CC(C)c1nc(-c2ccc(OCCCCCOc3ccc(C(=N)NO)cc3)cc2)c(CC2CCCC2)s1` [Compound 47, N-hydroxy-4-{5-[4-(5-cyclopentylmethyl-2-isopropyl-1,3-thiazol-4-yl)phenoxy]pentyloxy}-benzamidine], in that order: 42 ± 4.6^b %, 32 ± 3.0^ac % and 57 ± 7.9%.
For `N=C(NO)c1ccc(OCCCCCOc2ccc(-c3nc(C4CCCCC4)sc3CCNC3CC3)cc2)cc1` [Compound 252, N-hydroxy-4-(5-{4-[2-cyclohexyl-5-(2-cyclopropylamino-ethyl)-thiazol-4-yl]-phenoxy}-pentyloxy)-benzamidine], in that order: 33 ± 6.6^b %, 19 ± 4.0^ac % and 44 ± 2.7%.
Regarding `COCCNCc1sc(N(C)CCN2CCOCC2)nc1-c1ccc(OCCCCCOc2ccc(C(=N)NO)cc2)cc1` [Compound 318, N-hydroxy-4-[5-(4-{5-[(2-methoxy-ethylamino) -methyl]-2-[methyl-(2-morpholin-4-yl-ethyl)-amino]-thiazol-4-yl}-phenoxy) -pentyloxy]-benzamidine], the “% number of osteoclast” value under setting [1] was 27 ± 3.0^ab % and the “% number of osteoclast” value under setting [2] is on record as 12 ± 1.8^ac %. In addition, under setting [3], the activity at 0.1 µM came out at 43 ± 3.7%.
On to `Cc1nc(-c2ccc(OCCCCCOc3ccc(C(=N)NO)cc3)cc2)c(CCn2ccnc2)s1` [Compound 222, N-hydroxy-4-(5-{4-[5-(2-imidazol-1-yl-ethyl)-2-methyl-thiazol-4-yl]-phenoxy}-pentyloxy)-benzamidine], for which the “% number of osteoclast” value is, setting by setting: under setting [1], 49 ± 6.8^ab %; under setting [2], 36 ± 6.6^ac %. For the same compound, the activity at 0.1 µM under setting [3] amounted to 74 ± 7.1%.
